{"source": "patent US20240384284A1", "about": "“FEED CROPS FOR REDUCED METHANOGENESIS IN LIVESTOCK” (Elysia Creative Biology, LLC, priority 2023, published 2024)", "origin": "cited, not measured here", "system": "methanogenesis"}
{"smiles": "BrC(Br)Br", "note": "[Bromoform]", "values": [{"measurement": "in vivo methane reduction", "value": "up to 98%"}]}
